The record followed here is patent US20050267133A1, “Pyrazolopyrimidines as kinase inhibitors” (priority 2002, published 2005).

The target in one test is GSK-3β (Homo sapiens, UniProt P49841). Kind of test: GSK3 scintillation proximity assay (SPA) kinase assay. The test is classed as biochemical. As to conditions: 20 nM kinase, 2.5 uM ATP, biotinylated glycogen synthase peptide, 40 minutes at room temperature; -log IC50 in Molar; read-out: GSK-3 pIC50 (converted). The text has this:
The phosphorylated biotinylated peptide is then captured onto streptavidin coated scintillation proximity assay (SPA) beads from Amersham Technology, where the signal from the ^33P is amplified via the scintillant contained in the beads.
GSK-3β is commercially available or may be cloned and expressed in E. coli using standard techniques to produce soluble, active protein. The production of active protein involves purification in two steps using Metal Chelate and Ion Exchange Chromatography. Protein eluting from Ion Exchange provides >90% pure product that may then be concentrated for use in high throughput screening.
The kinase was assayed at a concentration of 20 nM final in 100 mM HEPES, pH 7.2 containing 10 mM magnesium chloride, 0.1 mg/mL bovine serum albumin, 1 mM dithiothreitol, 0.3 mg/mL heparin, 2.8 uM peptide substrate, 2.5 uM ATP, and 0.2 uCi/well [[…]-^33P]-ATP. After 40 minutes incubation at room temperature, the reaction was stopped by addition of 100 mM EDTA and […] in 100 mM HEPES, pH7.2 followed by an additional solution of diluted Streptavidin coated SPA beads in PBS, pH 7.2 to give a final concentration of 0.25 mg of beads per assay well in a 96-well microtiter plate.
10 mM stock solutions of the compounds of the invention in 100% DMSO are generated as a first step in the screening process. The second step involves the creation of dose response plates where these compounds are diluted 10-fold in 100% DMSO to 1 mM concentrations and subsequently serially diluted 3-fold in 100% DMSO across the plate by automated liquid handling such that the final top concentration of inhibitor is 0.033 mM in the 30 uL kinase assay. The third step involves the creation of the assay plates. This is achieved by transferring 1 uL of the compounds to assay plates by automated liquid handling. The fourth step is to perform the assay as described and count the resulting plates in the Packard TopCount NXT microplate scintillation and luminescence counter.
The final step is data acquisition and analysis where IC50 values are generated for each compound by normalizing curve data to the equation 100*(U1−C2)/(C1−C2) (where U1 is the cpm value, C2 is the background, and C1 is the maximum number of counts), then fitting the normalized data to the equation y=Vmax*(1−(x/(K+x))). The IC50 values were converted to pIC50 values, i.e., −log IC50 in Molar concentration. The data is expressed below in Table 1.
(In a scintillation proximity assay essentially only radioactivity close to the scintillant gives light.)

For test [1], the target named is T1, GST-TIE2 (intracellular domains of human TIE2) (Homo sapiens, UniProt Q02763).
T1 construct: made in house
Kind of test: TIE-2 Enzyme Assay (TIE2-E), LANCE method. It counts as biochemical. Conditions: preactivated GST-TIE2, 1 μM D1-15 peptide, 80 uM ATP, 30 mins at room temperature; pIC50 = -log IC50 in Molar. The text has this:
The TIE-2 enzyme assay used the LANCE method (Wallac) and GST-TIE2, baculovirus expressed recombinant constructs of the intracellular domains of human TIE2 (amino acids 762-1104, GenBank Accession # L06139) tagged by GST). The method measured the ability of the purified enzymes to catalyse the transfer of the γ-phosphate from ATP onto tyrosine residues in a biotinylated synthetic peptide, D1-15 (biotin-C6-LEARLVAYEGWVAGKKKamide). This peptide phosphorylation was detected using the following procedure: for enzyme preactivation, GST-TIE2 was incubated for 30 mins at room temperature with 2 mM ATP, 5 mM MgCl2 and 12.5 mM DTT in 22.5 mM HEPES buffer (pH7.4). Preactivated GST-TIE2 was incubated for 30 mins at room temperature in 96 well plates with 1 μM D1-15 peptide, 80 uM ATP, 10 mM MgCl2, 0.1 mg/ml BSA and the test compound (diluted from a 10 mM stock in DMSO, final DMSO concentration was 2.4%) in 1 mM HEPES (pH7.4). The reaction was stopped by the addition of EDTA (final concentration 45 mM). Streptavidin linked-APC (allophycocyanin, Molecular Probe) and Europium-labeled anti-phosphorylated tyrosine antibody (Wallac) were then added at the final concentration of 17 μg/well and 2.1 μg/well, respectively. The APC signal was measured using an ARVO multilabel counter. (Wallac Berthold Japan). The percent inhibition of activity was calculated relative to blank control wells.
The concentration of test compound that inhibits 50% of activity (IC50) was interpolated using nonlinear regression (Levernberg-Marquardt) and the equation, y=Vmax (1−x/(K+x))+Y2, where “K” was equal to the IC50. The IC50 values were converted to pIC50 values, i.e., −log IC50 in Molar concentration.
Test compounds are employed in free or salt form.
For orientation: Time-resolved FRET reads energy transfer from a long-lived donor to a nearby acceptor.

Chain of GSK-3β (P49841 whole entry, species assumed): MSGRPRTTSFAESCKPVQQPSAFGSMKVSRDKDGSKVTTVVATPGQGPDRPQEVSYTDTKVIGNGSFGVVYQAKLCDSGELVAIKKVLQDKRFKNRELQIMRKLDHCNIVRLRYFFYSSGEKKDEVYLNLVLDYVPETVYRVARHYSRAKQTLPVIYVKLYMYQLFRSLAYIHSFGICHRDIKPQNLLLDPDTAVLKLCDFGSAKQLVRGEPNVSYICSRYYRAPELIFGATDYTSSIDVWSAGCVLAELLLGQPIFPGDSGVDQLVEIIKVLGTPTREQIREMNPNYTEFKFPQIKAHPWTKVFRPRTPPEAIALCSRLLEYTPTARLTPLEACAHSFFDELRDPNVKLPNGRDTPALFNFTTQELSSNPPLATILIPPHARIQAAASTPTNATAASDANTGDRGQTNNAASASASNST
T1 sequence (Q02763 762-1104): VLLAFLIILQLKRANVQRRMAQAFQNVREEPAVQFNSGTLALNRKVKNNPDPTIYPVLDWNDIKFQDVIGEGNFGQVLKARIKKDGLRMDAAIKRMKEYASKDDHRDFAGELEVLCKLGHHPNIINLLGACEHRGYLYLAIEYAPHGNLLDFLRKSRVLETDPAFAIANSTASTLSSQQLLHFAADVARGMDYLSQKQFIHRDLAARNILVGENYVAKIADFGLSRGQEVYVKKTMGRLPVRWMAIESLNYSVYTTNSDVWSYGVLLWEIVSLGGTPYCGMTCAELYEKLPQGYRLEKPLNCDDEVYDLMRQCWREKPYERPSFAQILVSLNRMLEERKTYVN

Turning to `COc1cc(/C=N/Nc2ncnc3c2cnn3-c2ccccc2)cc(C(=O)O)c1O` [Example 47, 3-Carboxy-4-Hydroxy-5-methoxybenzaldehyde (1-phenyl-1H-pyrazolo[3,4-d]pyrimidin-4-yl)hydrazone], the IC50 at GSK-3β was 0.1 to 1 µM; in test [1] it was 1 to 10 µM.

As for `COc1cc(/C=N/Nc2ncnc3c2cnn3-c2ccccc2)cc(Br)c1O` [Example 48, 3-Bromo-4-hydroxy-3-methoxybenzaldehyde (1-phenyl-1H-pyrazolo[3,4-d]pyrimidin-4-yl)hydrazone], the IC50 (at GSK-3β; in test [1]) was 0.1 to 1 µM each time.

With `CCOc1cc(/C=N/Nc2ncnc3c2cnn3-c2ccccc2)ccc1O` [Example 49, 3-Ethoxy-4-hydroxy-benzaldehyde (1-phenyl-1H-pyrazolo[3,4-d]pyrimidin-4-yl)hydrazone], the IC50 (on GSK-3β; in test [1]) was 1 to 10 µM in each case.

Turning to `Fc1ccc(/C=N/Nc2ncnc3c2cnn3-c2ccccc2)cc1` [Example 50, 4-Fluorobenzaldehyde (1-phenyl-1H-pyrazolo[3,4-d]pyrimidin-4-yl)hydrazone], the IC50 on GSK-3β is 0.1 to 1 µM; in test [1] it was 1 to 10 µM.

In the case of `OCc1ccc(/C=N/Nc2ncnc3c2cnn3-c2ccccc2)o1` [Example 51, 5-Hydroxymethyl-2-furaldehyde [1-(phenyl)-1H-pyrazolo[3,4-d]pyrimidin-4-yl]hydrazone], the IC50 (at GSK-3β; in test [1]) was 1 to 10 µM throughout.

Take `CC(=O)Nc1ccc(/C=N/Nc2ncnc3c2cnn3-c2ccccc2)cc1` [Example 52, 4-Acetamidobenzaldehyde [1-(phenyl)-1H-pyrazolo[3,4-d]pyrimidin-4-yl]hydrazone]: the IC50 (at GSK-3β; in test [1]) was 0.1 to 1 µM each time.

For the compound `OCCOc1ccc(/C=N/Nc2ncnc3c2cnn3-c2ccccc2)cc1` [Example 53, 4-(2-Hydroxyethoxy)benzaldehyde [1-(phenyl)-1H-pyrazolo[3,4-d]pyrimidin-4-yl]hydrazone], the IC50 was 0.1 to 1 µM on GSK-3β and 1 to 10 µM in test [1].

With `COc1ccc(/C=N/Nc2ncnc3c2cnn3-c2ccccc2)cc1OC` [Example 56, 3,4-Dimethoxybenzaldehyde [1-(phenyl)-1H-pyrazolo[3,4-d]pyrimidin-4-yl]hydrazone], the IC50 (at GSK-3β; in test [1]) was 0.1 to 1 µM throughout.

With `[O-][n+]1ccc(/C=N/Nc2ncnc3c2cnn3-c2ccccc2)cc1` [Example 58, Pyridine-N-oxide-4-carboxaldehyde [1-(phenyl)-1H-pyrazolo[3,4-d]pyrimidin-4-yl]hydrazone], the IC50 at GSK-3β is less than 0.1 µM; in test [1] it was 1 to 10 µM.

As to `CCN(CC)CCOc1ccc(/C=N/Nc2ncnc3c2cnn3-c2ccccc2)cc1` [Example 60, 4-(2-(Diethylamino)-ethoxy)-benzaldehyde [1-(phenyl)-1H-pyrazolo[3,4-d]pyrimidin-4-yl]hydrazone], the IC50 (at GSK-3β; in test [1]) was 0.1 to 1 µM each time.

For `O=C(O)/C=C/c1ccc(/C=N/Nc2ncnc3c2cnn3-c2ccccc2)cc1` [Example 61, 4-Formylcin namic acid [1-(phenyl)-1H-pyrazolo[3,4-d]pyrimidin-4-yl]hydrazone], the IC50 (on GSK-3β; in test [1]) was 0.1 to 1 µM in each case.
